Test results as given in ChEMBL document CHEMBL6083211, “Pyrazolines inhibiting the activity of the early growth response-1 DNA-binding domain” (Bioorg Med Chem Lett, 2024).
The source made the active and inactive calls.

Legend:
Type in all cases: cell-based
[1] = molecular target: Early growth response protein 1 (Homo sapiens) (UniProt P18146); assay: Inhibition of EGR-1 in TNF-alpha-stimulated human HaCaT cells assessed as decrease in TSLP level at 20 to 40 uM pretreated for 30 mins followed by TNF-alpha stimulation measured after 6 hrs by RT-PCR analysis; details: dose 20-40 µM, time 390.0 min
Early growth response protein 1 (Homo sapiens), sequence (P18146 whole entry, looked up): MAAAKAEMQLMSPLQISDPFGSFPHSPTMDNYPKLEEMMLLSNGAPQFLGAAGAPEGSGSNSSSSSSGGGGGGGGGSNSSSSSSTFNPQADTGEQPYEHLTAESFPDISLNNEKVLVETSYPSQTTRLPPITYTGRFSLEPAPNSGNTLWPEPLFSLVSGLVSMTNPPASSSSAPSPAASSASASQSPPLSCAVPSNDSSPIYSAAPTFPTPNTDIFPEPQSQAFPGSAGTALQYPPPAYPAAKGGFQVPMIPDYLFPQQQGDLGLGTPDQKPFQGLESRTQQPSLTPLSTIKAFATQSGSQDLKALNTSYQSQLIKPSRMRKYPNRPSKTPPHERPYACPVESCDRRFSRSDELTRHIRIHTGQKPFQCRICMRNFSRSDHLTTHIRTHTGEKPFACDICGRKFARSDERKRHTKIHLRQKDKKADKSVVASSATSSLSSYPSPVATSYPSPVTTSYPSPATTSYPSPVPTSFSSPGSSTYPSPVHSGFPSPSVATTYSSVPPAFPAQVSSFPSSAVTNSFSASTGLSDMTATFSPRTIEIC

[2] = molecular target: Early growth response protein 1 (Homo sapiens) (UniProt P18146); assay: Inhibition of EGR-1 DNA binding activity in TNF-alpha-stimulated human HaCaT cells assessed as suppression of DNA-protein complex formation treated for 1 hr by EMSA; details: dose 20-40 µM
[3] = molecular target: Early growth response protein 1 (Homo sapiens) (UniProt P18146); assay: Inhibition of EGR-1 in TNF-alpha-stimulated human HaCaT cells assessed as decrease in IL-1beta level at 20 to 40 uM pretreated for 30 mins followed by TNF-alpha stimulation measured after 6 hrs by RT-PCR analysis; details: dose 20-40 µM, time 390.0 min
[4] = molecular target: Early growth response protein 1 (Homo sapiens) (UniProt P18146); assay: Inhibition of EGR-1 in TNF-alpha-stimulated human HaCaT cells assessed as decrease in IL-6 level at 20 to 40 uM pretreated for 30 mins followed by TNF-alpha stimulation measured after 6 hrs by RT-PCR analysis; details: dose 20-40 µM, time 390.0 min
[5] = molecular target: Early growth response protein 1 (Homo sapiens) (UniProt P18146); assay: Inhibition of EGR-1 in TNF-alpha-stimulated human HaCaT cells assessed as decrease in IL-31 level at 20 to 40 uM pretreated for 30 mins followed by TNF-alpha stimulation measured after 6 hrs by RT-PCR analysis; details: dose 20-40 µM, time 390.0 min

Measured: inhibition

COc1ccc(C2CC(c3c(O)ccc4ccccc34)=NN2)cc1 (stereo not given)
active: [1] | [2] Dose-dependent-effect | [3] | [4] | [5]
